How the values were obtained:
β-tubulin = conditions: NAP affinity columns; cited from earlier work
ADNP [1] = assay: Transgene shutoff by doxycycline in rTg(tau(P301L))4510 mice, western blots; assay type: in vivo, mouse; conditions: treated with doxycycline; untreated ratio is 3; FIG. 3D
Method: Nuclear ADNP expression was assessed using mouse monoclonal antibody directed against ADNP (1:300 dilution; BD Bioscience) at 150 KD, actin was used as a control. […] C. […] Tau expression was measured in the cytoplasmic fraction; ADNP was measured in nuclear fractions. D. Western blots showing expression level of ADNP in transgenic and non-transgenic mice after doxycycline treatment.

P19 cells = assay: P19 cell neuro-differentiation, Q-PCR of differentiation markers; assay type: cell-based, mouse; conditions: eight days differentiation, 1 μM RA; FIG. 2
Method: Mouse Embryonic teratocarcinoma cells were obtained from the American Type Culture Collection (ATCC, Bethesda, Md.); an initial control batch was a kind gift of Dr. Roi Atlas and Professor Irith Ginzburg, the Weizmann Institute of Science, Rehovot, Israel. P19 cells were grown in minimal essential medium (alpha-MEM) containing 5% fetal calf serum, 100 U/ml penicillin and 0.1 mg/ml streptomycin (Biological Industries, Beit Haemek, Israel) in a 5% CO2 incubator at 37° C. […]
Samples with same amount of total RNA were used to synthesize single-strand cDNA with SuperScript […] RNase H Reverse Transcriptase (Invitrogen, Carlsbad, Calif., USA) and a random hexamers adaptor primer according to the manufacturer's instructions. […] ADNP and ADNP2 expression levels in Schizophrenia were determined using specific primers for human ADNP and ADNP2, and normalized to TATA box binding protein. […] RNA from non-differentiated and differentiated P19 cells was isolated and the expression of tubulin β3 and glial fibrillary acidic protein (GFAP) was determined to confirm neuronal differentiation. ADNP and ADNP2 expression levels in P19 cells were determined using specific primers for mouse ADNP and ADNP2. […] The efficiencies of all primers used were calculated as a precursory step using standard curves, according to the equation: E (efficiency)=10^(−1/slope)−1×100 and were near 100% for all primers. […]

astrocytes or neurons = conditions: cited from earlier work
cancer cell division = conditions: unlike paclitaxel; cited from earlier work
tau transgenic mice = conditions: daily intranasal treatment over several months; cited from earlier work
anti-ADNP (NAP) antibody = conditions: incubation of antibody with excess NAP peptide; cited from earlier work
[2] = tested on: primary neuronal cell cultures; conditions: cited from earlier work
STOP+/- mice = conditions: daily nasal application; cited from earlier work
[3] = tested on: cerebellar granule neurons; conditions: cited from earlier work
ADNP+/- mice = conditions: cited from earlier work
amnestic MCI = conditions: 15 mg twice daily, intranasal, vs placebo; cited from earlier work
[4] = tested on: schizophrenia-related cognitive impairment; conditions: 5 mg once daily and 15 mg twice daily vs placebo, 56 patients; cited from earlier work
phosphorylated tau = conditions: 12-month-old mice, intranasal ~0.07 mg/kg/day for 3 months; cited from earlier work
[5] = tested on: Cortical neurons co-cultured with PEE astrocytes; conditions: cited from earlier work
[6] = tested on: gestational day 8.0 mouse embryos; conditions: cited from earlier work
[7] = tested on: known cell surface receptors; assay: Screening NAP on receptor panels; assay type: binding
Method: Fluorescent NAP was found inside cells, in the vicinity of microtubules when it was incubated with cells at 4° C. and at low pH (conditions that exclude receptor-mediated endocytocis) (I. Divinski et al. J Biol Chem 279, 28531-28538 (2004)). Furthermore, NAP activity is independent of its chirality (D. E. Brenneman et al. J Pharmacol Exp Ther 309, 1190-1197 (2004)) and NAP shares sequence similarities with protein sequences that have membrane permeability properties (I. Divinski et al. J Biol Chem 279, 28531-28538 (2004)).

ADNP [8] = conditions: 120 min 75% xenon and 25% oxygen vs 75% nitrogen and 25% oxygen; RT-PCR, western blot, immunohistochemistry; cited from earlier work
cell cultures = conditions: cited from earlier work

Molecule: CC(=O)O[C@H]1C(=O)[C@@]2(C)[C@H]([C@H](OC(=O)c3ccccc3)[C@]3(O)C[C@H](OC(=O)[C@H](O)[C@@H](NC(=O)c4ccccc4)c4ccccc4)C(C)=C1C3(C)C)[C@]1(OC(C)=O)CO[C@@H]1C[C@@H]2O [paclitaxel]
- NAP-tubulin interaction (β-tubulin): reduced

Molecule: C[C@H]1c2cccc(O)c2C(=O)C2=C(O)[C@]3(O)C(=O)C(C(N)=O)=C(O)[C@@H](N(C)C)[C@@H]3[C@@H](O)[C@@H]21 [doxycycline]
- ADNP protein expression ratio between the Tg and non-Tg mice (ADNP [1]): 1

Molecule: CC1=C(/C=C/C(C)=C/C=C/C(C)=C/C(=O)O)C(C)(C)CCC1 [RA, all-trans retinoic acid]
- glial fibrillar acidic protein (GFAP) expression, Q-PCR (P19 cells): up-regulation
- tubulinβ3 expression, Q-PCR (P19 cells): up-regulation

Molecule: CC[C@H](C)[C@H](NC(=O)[C@H](CO)NC(=O)[C@@H](NC(=O)[C@@H]1CCCN1C(=O)[C@H](C)NC(=O)[C@@H](N)CC(N)=O)C(C)C)C(=O)N1CCC[C@H]1C(=O)N[C@@H](CCC(N)=O)C(=O)O [NAP, Asn-Ala-Pro-Val-Ser-Ile-Pro-Gln]
- microtubule depolymerization by nocodazole (astrocytes or neurons; neurons): reversed
- tubulin zinc sheet formation and cell death (astrocytes or neurons; treatment with zinc chloride): protected
- cancer cell division (cancer cell division): does not affect
- short-term memory (tau transgenic mice): improving
- tau phosphorylation and "NFTs" (tau transgenic mice): reduced
- reduction of fluorescence staining (anti-ADNP (NAP) antibody): > 80%
- neurite outgrowth [2]: induced neurite outgrowth
- object recognition (STOP+/- mice): significantly improved to STOP+/+ performance level
- open field locomotor activity (STOP+/- mice): significantly decreased
- spatial memory (STOP+/- mice): ameliorated
- axon outgrowth ([3]; cerebellar granule neurons, via Fyn kinase and Cas phosphorylation): potentiated axon outgrowth
- cognitive deficits (ADNP+/- mice; 0.5 μg/mouse/day): partially ameliorated
- tau hyperphosphorylation (ADNP+/- mice; 0.5 μg/mouse/day): reduced
- amount of active GSK-3β (ADNP+/- mice; NAP treatment): reduced
- cognitive tests that primarily assessed attention and working memory function (amnestic MCI): general pattern of improvement
- UCSD Performance-based Skills Assessment (UPSA) test, secondary endpoint [4]: statistically significant positive treatment effect
- tests that measured visual learning and working memory [4]: Numerical positive treatment effects
- verbal learning [4]: favoring placebo
- decrease in phosphorylated tau at Ser202/Thr205 and Thr231 residues (phosphorylated tau): 70%
- dendritic and axonal growth or branching, density of synaptic structures ([5]; SNAP-25 and synaptophysin staining): significantly increased
- CREB phosphorylation [5]: increase
- activity of ERK and Akt ([5]; time-dependent): significantly stimulated
- percentage of embryos that had begun to close their neural folds ([6]; co-incubation with ethanol and NAP): significantly increased
- alcohol-induced serotonergic loss during brain development ([6]; in vivo, caudal raphe): protected
- binding to known cell surface receptors [7]: did not reveal any significant binding

Molecule: [Xe] [xenon]
- ADNP expression in neonatal rat brain (ADNP [8]): differentially expressed

Molecule: CCO [ethanol]
- IC50 ([3]; by inhibiting NAP activation of Fyn kinase and Cas, read-out: IC(50), block of NAP-mediated axon outgrowth): 17 mM

B1: recombinant ADNP: recombinant activity-dependent neuroprotective protein (protein, UniProt Q9H2P0 1-1102, looked up)
Activity-dependent …: MFQLPVNNLGSLRKARKTVKKILSDIGLEYCKEHIEDFKQFEPNDFYLKNTTWEDVGLWDPSLTKNQDYRTKPFCCSACPFSSKFFSAYKSHFRNVHSEDFENRILLNCPYCTFNADKKTLETHIKIFHAPNASAPSSSLSTFKDKNKNDGLKPKQADSVEQAVYYCKKCTYRDPLYEIVRKHIYREHFQHVAAPYIAKAGEKSLNGAVPLGSNAREESSIHCKRCLFMPKSYEALVQHVIEDHERIGYQVTAMIGHTNVVVPRSKPLMLIAPKPQDKKSMGLPPRIGSLASGNVRSLPSQQMVNRLSIPKPNLNSTGVNMMSSVHLQQNNYGVKSVGQGYSVGQSMRLGLGGNAPVSIPQQSQSVKQLLPSGNGRSYGLGSEQRSQAPARYSLQSANASSLSSGQLKSPSLSQSQASRVLGQSSSKPAAAATGPPPGNTSSTQKWKICTICNELFPENVYSVHFEKEHKAEKVPAVANYIMKIHNFTSKCLYCNRYLPTDTLLNHMLIHGLSCPYCRSTFNDVEKMAAHMRMVHIDEEMGPKTDSTLSFDLTLQQGSHTNIHLLVTTYNLRDAPAESVAYHAQNNPPVPPKPQPKVQEKADIPVKSSPQAAVPYKKDVGKTLCPLCFSILKGPISDALAHHLRERHQVIQTVHPVEKKLTYKCIHCLGVYTSNMTASTITLHLVHCRGVGKTQNGQDKTNAPSRLNQSPSLAPVKRTYEQMEFPLLKKRKLDDDSDSPSFFEEKPEEPVVLALDPKGHEDDSYEARKSFLTKYFNKQPYPTRREIEKLAASLWLWKSDIASHFSNKRKKCVRDCEKYKPGVLLGFNMKELNKVKHEMDFDAEWLFENHDEKDSRVNASKTADKKLNLGKEDDSSSDSFENLEEESNESGSPFDPVFEVEPKISNDNPEEHVLKVIPEDASESEEKLDQKEDGSKYETIHLTEEPTKLMHNASDSEVDQDDVVEWKDGASPSESGPGSQQVSDFEDNTCEMKPGTWSDESSQSEDARSSKPAAKKKATMQGDREQLKWKNSSYGKVEGFWSKDQSQWKNASENDERLSNPQIEWQNSTIDSEDGEQFDNMTDGVAEPMHGSLAGVKLSSQQA
- protection against severe oxidative stress and Aβ toxicity (cell cultures): potent protection
